One may read the IC50 as the midpoint of a concentration-inhibition curve. By EC50 is commonly meant the midpoint of the concentration-response curve.

Molecules are shown by their SMILES. Read-outs that look alike come from different tables or passages of the source. Bounds are passed on as bounds.

Test [1] deals with T1, STING AQ: His-TVMV-S-hSTING(155-341)-G230A-R293Q (Homo sapiens, UniProt Q86WV6, G230A/H232R/R293Q).
T1 construct: STING AQ: His-TVMV-S-hSTING(155-341)-G230A-R293Q
As to the kind of experiment: STING HTRF competition binding assay, STING AQ. The conditions noted are these: 20 nM His-tagged STING cytoplasmic domain AQ, 40 nM fluorescein-labeled cGAMP analog probe, one hour; read-out: HTRF Binding Assays IC50 AQ. The procedure:
(§1) Sting HTRF Binding Assays
(§2) A time resolved FRET-based competition binding assay was used to assess test article binding to STING WT and STING AQ. His-tagged STING cytoplasmic domain (WT or AQ) at a concentration of 20 nM was incubated with 2.5 nM Tb-labeled anti-His antibody, test compound, and fluorescein-labeled cGAMP analog probe (BioLog cat. no. C195) at a concentration of 200 nM (STING WT) or 40 nM (STING AQ) in PBS containing 0.005% Tween-20 and 0.1% BSA for one hour. Fluorescence at 495 nm and 520 nm was measured using an EnVision microplate reader to quantify FRET between Tb-labeled anti-His antibody and fluorescein-labeled probe. Background was defined as the signal obtained in the absence of STING protein, and background subtracted FRET ratios were normalized to the maximum signal obtained in the absence of test compound. These values were converted to a percent inhibition. Percent inhibition was determined for test compounds at 11 concentrations. The IC50, defined as the concentration of competing test compound needed to reduce specific binding of the probe by 50%, was calculated using the 4 parameter logistic equation to fit the data
(TR-FRET usually uses a lanthanide donor and a delayed reading to cut background.)

The target in test [2] is T2, STING WT: His-TVMV-S-hSTING(155-341)-H232R (Homo sapiens, UniProt Q86WV6, H232R).
T2 construct: STING WT: His-TVMV-S-hSTING(155-341)-H232R
T2 sequence (Q86WV6 with tags, fused parts or gaps H232R): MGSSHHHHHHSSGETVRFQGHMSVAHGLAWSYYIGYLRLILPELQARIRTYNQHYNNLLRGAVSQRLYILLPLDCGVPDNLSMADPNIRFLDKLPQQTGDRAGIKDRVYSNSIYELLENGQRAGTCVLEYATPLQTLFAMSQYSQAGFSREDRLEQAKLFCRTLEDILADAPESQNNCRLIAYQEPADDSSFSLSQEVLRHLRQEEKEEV
As to the kind of experiment: STING HTRF competition binding assay, STING WT. As to conditions: 20 nM His-tagged STING cytoplasmic domain WT, 200 nM fluorescein-labeled cGAMP analog probe, one hour; read-out: HTRF Binding Assays IC50 WT. Here is the method:
as §1, §2

Test [3] concerns NF-κB pathway. Description: STING THP1 reporter assay, NF-κB pathway (SEAP). The class given is cell-based. As to conditions: THP1-Dual cells, 10% human plasma, SEAP readout, 100% = 100 μM cGAMP, read-out: THP1 Reporter Assays EC50 NFkB. The source says:
(§3) STING THP1 Reporter Assay Protocol
(§4) THP1-Dual™ cells were derived from the human THP-1 monocyte cell line by stable integration of two inducible reporter constructs. To this end, THP1-Dual™ cells allow the simultaneous study of the NF-κB pathway, by monitoring the activity of SEAP, and the IRF pathway by assessing the activity of a secreted luciferase (Lucia). Both reporter proteins are readily measurable in the cell culture supernatant when using QUANTI-Blue™, a SEAP detection reagent, and QUANTI-Luc™, a luciferase detection reagent.
(§5) THP1-Dual™ cells induce the activation of NF-κB in response to STING agonists. They also trigger the IRF pathway upon stimulation with STING agonists, such as cGAMP. Here, the THP-1-Dual cells were used to assess STING binders for function on the cellular level.
(§6) Serial dilutions of compounds in DMSO were added to low volume 384 well plates at 100 nl/well using an ECHO acoustic dispenser (Labcyte, model 550) to achieve final starting concentration of 100 μM in cell suspension. THP-1 Dual™ STING reporter cells (Invivogen, Dual cells cat #THPD-nfis) were added to the plates with compounds at 15,000 cells in 10 μL per well in RPMI media (Gibco, cat #11875) containing 10% human plasma in a low volume 384-well black wall clear bottom tissue culture plate (Corning, cat #3542) for SEAP assay and low volume solid white plate (Corning, cat #3826) for luciferase assay. One column of the plate was reserved for treatment with cGAMP at 100 μM for 100% activation calculation and one column for no treatment (DMSO only) for baseline activation. Plates were then incubated in 37 OC incubator at 5% CO2 for 20 hours.
(§7) In the SEAP assay, 5 μl of 2× QuantiBlue (Invivogen, cat #Rep-qb2) is added to 384 well black plates seeded with THP1 cells and incubated at 37° C. for 2 hours. Plates were read on the Envision (Perkin Elmer) at 620 nm wavelength (OD620). In the luciferase assay, 5 μl of Quantiluc (Invivogen, Rep-qlc2) is added to white 384 well plates seeded with THP1 cells and read at 5 minutes on the Envision (Perkin Elmer) using a luminescence protocol (RLU). For both cell lines, 100% activation was determined by value (RLU) of THP-1 Dual STING cells stimulated with 100 μM cGAMP (Invivogen, cat #TLRL-NACGA23-5).

The subject of test [4] is IRF pathway. As to the kind of experiment: STING THP1 reporter assay, IRF pathway (Lucia luciferase). It is filed as cell-based. As to conditions: THP1-Dual cells, 10% human plasma, luciferase readout, 100% = 100 μM cGAMP, read-out: THP1 Reporter Assays EC50 IRF3.
Source text: as §3, §4, §5, §6, §7
(In general: In a reporter assay the amount or activity of a reporter protein is the signal.)

T1 sequence (Q86WV6 with tags, fused parts or gaps G230A/H232R/R293Q): as the sequence (Q86WV6 with tags, fused parts or gaps H232R) above, with G99A, R162Q counted along it

Take `NC(=O)c1cc([C@@H]2O[C@@H]3COP(=O)(S)O[C@H]4[C@@H](F)[C@H](n5cnc6c(N)ncnc65)O[C@@H]4COP(=O)(S)O[C@@H]2[C@@H]3O)[nH]n1` (single isomer, unassigned) [Example 1-1]: the IC50 worked out at 90 nM in test [1] and 2400 nM in test [2]. Further, the EC50 in test [3] (20 hours) and in test [4] (20 hours) was more than 100 µM in each case.

Consider `NC(=O)c1cc([C@@H]2O[C@@H]3COP(=O)(S)O[C@H]4[C@@H](F)[C@H](n5cnc6c(N)ncnc65)O[C@@H]4COP(=O)(S)O[C@@H]2[C@@H]3O)[nH]n1` (single isomer, unassigned) [Example 1-3], for which the IC50 worked out at 10 nM in test [1] and 50 nM in test [2]. For the same compound, the EC50 in test [3] (20 hours) came to 6.8 µM; in test [4] (20 hours) it was 4 µM.

Turning to `NC(=O)c1cc([C@@H]2O[C@@H]3COP(=O)(S)O[C@H]4[C@@H](F)[C@H](n5cnc6c(N)ncnc65)O[C@@H]4COP(=O)(S)O[C@@H]2[C@@H]3O)[nH]n1` (single isomer, unassigned) [Example 1-2], the IC50 was 30 nM in test [1] and 910 nM in test [2]. The concentration for a half-maximal effect (EC50) in test [3] (20 hours) and in test [4] (20 hours) was more than 100 µM in each case.

As for `NC(=O)c1cc([C@@H]2O[C@@H]3COP(O)(=S)O[C@H]4[C@@H](F)[C@H](n5cnc6c(N)ncnc65)O[C@@H]4COP(O)(=S)O[C@@H]2[C@@H]3O)[nH]n1` (stereo partly shown) [Example 1-4], the IC50 in test [1] was found to be 40 nM; in test [2] it was 680 nM. The 50% effective concentration (EC50) in test [3] (Homo sapiens, THP-1, 20 h) is more than 100 µM; in test [4] (Homo sapiens, THP-1, 20 h) it was more than 100 µM.

Source of the values: patent US11667663B2, “Cyclic dinucleotides as anticancer agents” (BRISTOL-MYERS SQUIBB COMPANY, priority 2017, dated 2023).
